Measured values published in patent US20190105367A1, “ANTIMICROBIAL 4-OXOQUINOLIZINES” (Emergent Product Development Gaithersburg Inc., priority 2011, published 2019).
Converted amounts (≈) assume the structure as drawn. Where two headings read alike, the source gives them in different places.

Tests used:
A. baumannii A14 [1] = test: MIC without and with sub-inhibitory polymyxin B (Example 4); format: cell-based, Acinetobacter baumannii; conditions: 1st experiment
A. baumannii A401 [2] = test: Preliminary MBC without and with sub-inhibitory polymyxin B (Example 4); format: cell-based, Acinetobacter baumannii; conditions: Acinetobacter baumannii
A. baumannii NCTC 13301 [3] = test: MIC without and with sub-inhibitory polymyxin B (Example 4); format: cell-based, Acinetobacter baumannii; conditions: +[…] PB, 2nd experiment
A. baumannii A472 [4] = test: as above; format: cell-based, Acinetobacter baumannii; conditions: for MIC: Acinetobacter baumannii
A. baumannii A390 [5] = test: as above; format: cell-based, Acinetobacter baumannii; conditions: +0.06 μg/ml PB, 2nd experiment
A. baumannii ATCC 19606 [6] = test: as above; format: cell-based, Acinetobacter baumannii; conditions: for MIC without PB/MIC + PB: A. baumannii ATCC 19606; for MIC: Acinetobacter baumannii
A. baumannii A387 [7] = test: Preliminary MBC without and with sub-inhibitory polymyxin B (Example 4); format: cell-based, Acinetobacter baumannii; conditions: Acinetobacter baumannii
A. baumannii A473 [8] = test: MIC without and with sub-inhibitory polymyxin B (Example 4); format: cell-based, Acinetobacter baumannii; conditions: +0.06 μg/ml PB, 2nd experiment
A. baumannii A329 = test: Preliminary MBC without and with sub-inhibitory polymyxin B (Example 4); format: cell-based, Acinetobacter baumannii; conditions: Acinetobacter baumannii, A329, A. baumannii A329, +0.06 μg/ml PB, 2nd experiment, read-out: MBC
A. baumannii A14 [9] = test: MIC without and with sub-inhibitory polymyxin B (Example 4); format: cell-based, Acinetobacter baumannii; conditions: 2nd experiment
[10] = tested on: strains of A. baumannii and one strain of Acinetobacter sp.; test: MIC with sub-inhibitory concentrations (0.25x MIC) of polymyxin B, panel of Acinetobacter strains (Example 4); format: cell-based; conditions: 2nd experiment; 0.06 μg/ml polymyxin B; all strains except the ATCC strain
A. baumannii ATCC 19606 [11] = test: Preliminary MBC without and with sub-inhibitory polymyxin B (Example 4); format: cell-based, Acinetobacter baumannii; conditions: Acinetobacter baumannii
A. baumannii J2 = test: MIC without and with sub-inhibitory polymyxin B (Example 4); format: cell-based, Acinetobacter baumannii
A. baumannii A14 [12] = test: Preliminary MBC without and with sub-inhibitory polymyxin B (Example 4); format: cell-based, Acinetobacter baumannii; conditions: 2nd experiment
Outline: (§1)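 After plating, cultures are held at 37° C for 18-20 hours; the endpoint is then scored by comparing colony growth against the positive control, with MBC defined as the lowest concentration showing roughly 90% reduction.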

A. baumannii A473 [13] = test: as above; format: cell-based, Acinetobacter baumannii; conditions: Acinetobacter baumannii, A473, A. baumannii A473, +0.06 μg/ml PB, 2nd experiment, read-out: MBC
Outline: as §1

A. baumannii A390 [14] = test: as above; format: cell-based, Acinetobacter baumannii; conditions: Acinetobacter baumannii, A390, A. baumannii A390, +0.06 μg/ml PB, 2nd experiment, read-out: MBC
Outline: as §1

A. baumannii NCTC 13301 [15] = test: as above; format: cell-based, Acinetobacter baumannii; conditions: Acinetobacter baumannii
Outline: as §1

A. baumannii A387 [16] = test: MIC without and with sub-inhibitory polymyxin B (Example 4); format: cell-based, Acinetobacter baumannii; conditions: for MIC without PB/MIC + PB: A. baumannii A387; for MIC: Acinetobacter baumannii
A. baumannii NCTC 13301 [17] = test: as above; format: cell-based, Acinetobacter baumannii
A. baumannii A401 [18] = test: as above; format: cell-based, Acinetobacter baumannii; conditions: for MIC: Acinetobacter baumannii
A. baumannii A472 [19] = test: Preliminary MBC without and with sub-inhibitory polymyxin B (Example 4); format: cell-based, Acinetobacter baumannii; conditions: Acinetobacter baumannii, preliminary MBC
A. baumannii A489 = test: MIC without and with sub-inhibitory polymyxin B (Example 4); format: cell-based, Acinetobacter baumannii; conditions: for MIC without PB/MIC + PB: A. baumannii A489; for MIC: Acinetobacter baumannii
[20] = tested on: Acinetobacter sp. (H064200250); test: as above; format: cell-based; conditions: for MIC: Acinetobacter
A. baumannii A14 [21] = test: Preliminary MBC without and with sub-inhibitory polymyxin B (Example 4); format: cell-based, Acinetobacter baumannii; conditions: A. baumannii A14; +0.06 μg/ml polymyxin B; preliminary MBC; 1st experiment
[22] = ratio, PB 0.06 μg/ml, 1st experiment
[23] = A. baumannii A14, +0.06 μg/ml PB

## Cc1c(-c2ccc(N)cc2)ccn2c(=O)c(C(=O)O)cc(C3CC3)c12 [Compound 8, 8-(4-amino-phenyl)-1-cyclopropyl-9-methyl-4-oxo-quinolizine-3-carboxylic acid]
A. baumannii A14 [1]; +0.06 μg/ml polymyxin B
  MIC +0.06 μg/ml PB: 1 µg/mL
A. baumannii A14 [1]; ratio, PB 0.06 μg/ml
  MIC without PB/MIC + PB: 32
A. baumannii A401 [2]; A401, A baumannii A 401, +0.06 μg/ml PB, 2nd experiment, read-out: MBC
  MBC: 0.25 µg/mL (≈ 0.748 µM)
A. baumannii A401 [2]; A401, read-out: MBC +0.06 μg/ml PB, A baumannii A 401, +0.06 μg/ml polymyxin B, 1st experiment
  MBC: ≤ 0.03 µg/mL
A. baumannii NCTC 13301 [3]; A. baumannii NCTC 13301
  MIC without PB/MIC + PB: 32
A. baumannii NCTC 13301 [3]; Acinetobacter baumannii, NCTC13301, A. baumannii NCTC 13301, read-out: MIC
  MIC: 0.5 µg/mL (≈ 1.5 µM)
A. baumannii A472 [4]; A. baumannii A472, ratio, PB […], 1st experiment
  MIC without PB/MIC + PB: ≥128
A. baumannii A472 [4]; A472, A. baumannii A472, +[…] PB, 2nd experiment, read-out: MIC
  MIC: 0.06 µg/mL (≈ 0.179 µM)
A. baumannii A472 [4]; A472, read-out: MIC +[…] PB, A. baumannii A472, +[…] polymyxin B, 1st experiment
  MIC: ≤ 0.03 µg/mL
A. baumannii A390 [5]; A. baumannii A390
  MIC without PB/MIC + PB: 32
A. baumannii A390 [5]; Acinetobacter baumannii, A390, A. baumannii A390, read-out: MIC
  MIC: 0.5 µg/mL (≈ 1.5 µM)
A. baumannii ATCC 19606 [6]; +0.06 μg/ml PB, 2nd experiment
  MIC without PB/MIC + PB: ≥8
A. baumannii ATCC 19606 [6]; [22]
  MIC without PB/MIC + PB: ≥32
A. baumannii ATCC 19606 [6]; ATCC19606, A. baumannii ATCC 19606, +0.06 μg/ml PB, 2nd experiment, read-out: MIC
  MIC: ≤ 0.03 µg/mL
A. baumannii ATCC 19606 [6]; ATCC19606, read-out: MIC +0.06 μg/ml PB, A. baumannii ATCC 19606, +0.06 μg/ml polymyxin B, 1st experiment
  MIC: ≤ 0.03 µg/mL
A. baumannii A387 [7]; A387, A. baumannii A387, +0.06 μg/ml PB, 2nd experiment, read-out: MBC
  MBC: 0.25 µg/mL (≈ 0.748 µM)
A. baumannii A387 [7]; A387, read-out: MBC +0.06 μg/ml PB, A. baumannii A387, +0.06 μg/ml polymyxin B, 1st experiment
  MBC: ≤ 0.03 µg/mL
A. baumannii A473 [8]; A. baumannii A473
  MIC without PB/MIC + PB: 8
A. baumannii A473 [8]; Acinetobacter baumannii, A473, A. baumannii A473, read-out: MIC
  MIC: 0.5 µg/mL (≈ 1.5 µM)
A. baumannii A329
  MBC: 2 µg/mL (≈ 5.98 µM)
A. baumannii A14 [9]; [23]
  MIC: 0.5 µg/mL (≈ 1.5 µM)
  MIC without PB/MIC + PB: 16
A. baumannii A14 [9]; Acinetobacter baumannii, A14, A. baumannii A14, without PB, read-out: MIC
  MIC: 8 µg/mL (≈ 23.9 µM)
[10]
  MIC range with PB (0.25x MIC) Oct. 14, 2008 n = 11: ≤0.03 to 8 µg/mL
A. baumannii ATCC 19606 [11]; ATCC19606, A. baumannii ATCC 19606, +0.06 μg/ml PB, 2nd experiment, read-out: MBC
  MBC: ≤ 0.03 µg/mL
A. baumannii ATCC 19606 [11]; ATCC19606, read-out: MBC +0.06 μg/ml PB, A. baumannii ATCC 19606, +0.06 μg/ml polymyxin B, 1st experiment
  MBC: ≤ 0.03 µg/mL
A. baumannii J2; A. baumannii J2, +[…] PB, 2nd experiment
  MIC without PB/MIC + PB: ≥128
A. baumannii J2; A. baumannii J2, +[…] polymyxin B, 1st experiment
  MIC +[…] PB: 0.125 µg/mL (≈ 0.374 µM)
A. baumannii J2; A. baumannii J2, ratio, PB […], 1st experiment
  MIC without PB/MIC + PB: 64
A. baumannii J2; Acinetobacter baumannii, J2, A. baumannii J2, +[…] PB, 2nd experiment, read-out: MIC
  MIC: ≤ 0.03 µg/mL
A. baumannii A14 [12]; [23]
  MBC: 0.5 µg/mL (≈ 1.5 µM)
A. baumannii A14 [12]; Acinetobacter baumannii, A14, A. baumannii A14, without PB, read-out: MBC
  MBC: 16 µg/mL (≈ 47.9 µM)
A. baumannii A473 [13]
  MBC: 0.5 µg/mL (≈ 1.5 µM)
A. baumannii A390 [14]
  MBC: 0.5 µg/mL (≈ 1.5 µM)
A. baumannii NCTC 13301 [15]; NCTC13301, A. baumannii NCTC 13301, +[…] PB, preliminary MBC, 2nd experiment, read-out: MBC
  MBC: 0.5 µg/mL (≈ 1.5 µM)
A. baumannii NCTC 13301 [15]; NCTC13301, read-out: MBC +[…] PB
  MBC: 1 µg/mL (≈ 2.99 µM)
A. baumannii A387 [16]; +0.06 μg/ml PB, 2nd experiment
  MIC without PB/MIC + PB: 2
A. baumannii A387 [16]; [22]
  MIC without PB/MIC + PB: ≥64
A. baumannii A387 [16]; A387, A. baumannii A387, +0.06 μg/ml PB, 2nd experiment, read-out: MIC
  MIC: 0.5 µg/mL (≈ 1.5 µM)
A. baumannii A387 [16]; A387, read-out: MIC +0.06 μg/ml PB, A. baumannii A387, +0.06 μg/ml polymyxin B, 1st experiment
  MIC: ≤ 0.03 µg/mL
A. baumannii NCTC 13301 [17]; A. baumannii NCTC 13301, ratio, PB […], 1st experiment
  MIC without PB/MIC + PB: 64
A. baumannii NCTC 13301 [17]; Acinetobacter baumannii, NCTC13301, read-out: MIC +[…] PB
  MIC: 0.5 µg/mL (≈ 1.5 µM)
A. baumannii A401 [18]; A baumannii A 401, ratio, PB 0.06 μg/ml, 1st experiment
  MIC without PB/MIC + PB: ≥1024
A. baumannii A401 [18]; A401, A baumannii A 401, +0.06 μg/ml PB, 2nd experiment, read-out: MIC
  MIC: 0.25 µg/mL (≈ 0.748 µM)
A. baumannii A401 [18]; A401, read-out: MIC +0.06 μg/ml PB, A baumannii A 401, +0.06 μg/ml polymyxin B, 1st experiment
  MIC: ≤ 0.03 µg/mL
A. baumannii A472 [19]; A472, A. baumannii A472, +[…] PB, 2nd experiment, read-out: MBC
  MBC: 0.06 µg/mL (≈ 0.179 µM)
A. baumannii A472 [19]; A472, read-out: MBC +[…] PB, A. baumannii A472, +[…] polymyxin B, 1st experiment
  MBC: ≤ 0.03 µg/mL
A. baumannii A489; +[…] PB, 2nd experiment
  MIC without PB/MIC + PB: ≥256
A. baumannii A489; ratio, PB […], 1st experiment
  MIC without PB/MIC + PB: ≥64
A. baumannii A489; A489, A. baumannii A489, +[…] PB, 2nd experiment, read-out: MIC
  MIC: ≤ 0.03 µg/mL
A. baumannii A489; A489, read-out: MIC +[…] PB, A. baumannii A489, +[…] polymyxin B, 1st experiment
  MIC: ≤ 0.03 µg/mL
[20]; Acinetobacter spp. H064200250 (OXA51), +[…] PB, 2nd experiment
  MIC without PB/MIC + PB: 32
[20]; Acinetobacter spp. H064200250, ratio, PB […], 1st experiment
  MIC without PB/MIC + PB: 32
[20]; Acinetobacter spp. H064200250 (OXA51), +[…] PB, 2nd experiment, read-out: MIC
  MIC: 0.125 µg/mL (≈ 0.374 µM)
[20]; read-out: MIC +[…] PB, Acinetobacter spp. H064200250, +[…] polymyxin B, 1st experiment
  MIC: 0.06 µg/mL (≈ 0.179 µM)
A. baumannii A14 [21]
  MBC +0.06 μg/ml PB: 1 µg/mL
